Assay results reported in patent US11230526B1, “Cylcoalkenyl derivatives useful as agonists of the GPR120 and/or GPR40 receptors” (Janssen Pharmaceutica NV, priority 2018, dated 2022).

Legend:
Assay type in all cases: cell-based
Human GPR120 short form [1] = biological target: T1, Human GPR120 short form (Homo sapiens, UniProt Q5NUL3); experiment: Human GPR120 calcium flux assay, Procedure Calcium B (4200 cells/well)
T1 construct: expressed in transfected cells
T1 sequence (Q5NUL3 1-361): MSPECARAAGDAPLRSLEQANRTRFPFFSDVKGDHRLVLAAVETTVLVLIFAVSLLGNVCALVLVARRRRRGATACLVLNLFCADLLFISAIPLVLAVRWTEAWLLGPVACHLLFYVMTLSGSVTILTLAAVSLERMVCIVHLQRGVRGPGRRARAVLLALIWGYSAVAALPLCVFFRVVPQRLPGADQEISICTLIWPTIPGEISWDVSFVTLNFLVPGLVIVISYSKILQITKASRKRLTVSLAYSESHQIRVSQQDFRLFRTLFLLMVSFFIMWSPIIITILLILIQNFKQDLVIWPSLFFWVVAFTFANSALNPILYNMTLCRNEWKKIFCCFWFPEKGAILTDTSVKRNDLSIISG
In short: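 HEK293 cells stably expressing human GPR120 (NM_001195755.1), 4200 cells/well, starved 1 h and loaded with Fluo-4 NW plus probenecid. Ligand-evoked calcium flux read on FLIPR for 300 s after a 10 s baseline. RFU = Fmax−Fmin; EC50 from four-parameter concentration-response fit.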

Human GPR120 short form [2] = biological target: T1, Human GPR120 short form; experiment: Human GPR120 calcium flux assay, Procedure Calcium A (2500 cells/well)
In short: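 HEK293 cells stably expressing human GPR120 short isoform (NM_001195755.1), 2500 cells/well, serum-starved 1 h at 37 °C and loaded with Fluo-4 NW plus probenecid. FLIPR fluorescence read for 300 s after compound addition; response = Fmax−Fmin. EC50 from four-parameter concentration–response fit.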

human GPR40 = biological target: T2, human GPR40 (Homo sapiens, UniProt O14842); experiment: GPR40 calcium flux assay, human GPR40; conditions: HEK293 cells stably expressing GPR40; table does not say human or rat
T2 construct: expressed in transfected cells
T2 sequence (O14842 whole entry): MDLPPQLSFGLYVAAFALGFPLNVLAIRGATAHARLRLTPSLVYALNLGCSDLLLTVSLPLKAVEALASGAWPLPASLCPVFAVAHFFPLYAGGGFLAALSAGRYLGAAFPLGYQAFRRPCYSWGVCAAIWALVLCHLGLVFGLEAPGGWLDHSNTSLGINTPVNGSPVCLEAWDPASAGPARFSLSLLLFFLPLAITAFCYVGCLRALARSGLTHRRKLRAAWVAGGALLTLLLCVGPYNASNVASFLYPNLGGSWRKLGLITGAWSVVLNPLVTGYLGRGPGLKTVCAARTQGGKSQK
In short: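 Cells preincubated 1 h at 37° C. in HBSS, 20 mM HEPES, 0.1% BSA, then Fluo 8 calcium dye 30 min at 37° C. and 15 min at room temperature.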

SMILES | EC50 (Human GPR120 short form [1]) | EC50 (Human GPR120 short form [2]) | EC50 (human GPR40)
Cc1ccc(C2=C(COc3ccc(CCC(=O)O)c(C)c3C)CCC2)cc1 [Compound 52, 3-[2,3-dimethyl-4-[[2-(p-tolyl)cyclopenten-1-yl]methoxy]phenyl]Propanoic Acid] | 24 nM | 173 nM | > 10000 nM
Cc1c(CCC(=O)O)ccc(OCC2=C(c3cccc(Cl)c3)CCC2)c1C [Compound 58, 3-[4-[[2-(3-chlorophenyl)cyclopenten-1-yl]methoxy]-2,3-dimethyl-phenyl]Propanoic Acid] | 159 nM | 546 nM | > 10000 nM
COc1cc(F)cc(C2=C(COc3ccc(CCC(=O)O)c(C)c3C)CCC2)c1 [Compound 65, 3-[4-[[2-(3-fluoro-5-methoxy-phenyl)cyclopenten-1-yl]methoxy]-2,3-dimethyl-phenyl]Propanoic Acid] | 614 nM | 2490 nM | > 5000 nM
Cc1c(CCC(=O)O)ccc(OCC2=C(c3ccc(Cl)c(Cl)c3)CCC2)c1C [Compound 66, 3-[4-[[2-(3,4-dichlorophenyl)cyclopenten-1-yl]methoxy]-2,3-dimethyl-phenyl]Propanoic Acid] | 205 nM | 658 nM | > 5000 nM
O=C(O)CCc1ccc(OCC2=C(c3ccc(Cl)cc3)CCC2)c(F)c1F [Compound 70, 3-[4-[[2-(4-chlorophenyl)cyclopenten-1-yl]methoxy]-2,3-difluoro-phenyl]Propanoic Acid] | 23 nM | 344 nM | > 5000 nM
Cc1ccc(C2=C(COc3ccc(CCC(=O)O)c(F)c3F)CCC2)c(C)c1 [Compound 72, 3-(4-((2-(2,4-dimethylphenyl)cyclopent-1-en-1-yl)methoxy)-2,3-difluorophenyl)Propanoic Acid] | 245 nM | 658 nM | > 5000 nM
Cc1c(CCC(=O)O)ccc(OCC2=C(c3ccccc3Cl)CCC2)c1C [Compound 76, 3-[4-[[2-(2-chlorophenyl)cyclopenten-1-yl]methoxy]-2,3-dimethyl-phenyl]Propanoic Acid] | 136 nM | 542 nM | > 10000 nM
Cc1c(CCC(=O)O)ccc(OCC2=C(c3cccs3)CCC2)c1C [Compound 77, 3-[2,3-dimethyl-4-[[2-(2-thienyl)cyclopenten-1-yl]methoxy]phenyl]Propanoic Acid] | 122 nM | 508 nM | > 10000 nM
Cc1ccc(C2=C(COc3ccc(CCC(=O)O)c(F)c3F)CCC2)cc1F [Compound 78, 3-(2,3-difluoro-4-((2-(3-fluoro-4-methylphenyl)cyclopent-1-en-1-yl)methoxy)phenyl)Propanoic Acid] | 34 nM | 94 nM | > 5000 nM
Cc1c(CCC(=O)O)ccc(OCC2=C(c3nccs3)CCC2)c1C [Compound 79, 3-[2,3-dimethyl-4-[(2-thiazol-2-ylcyclopenten-1-yl)methoxy]phenyl]Propanoic Acid] | 192 nM | 760 nM | > 5000 nM
Cc1ccc(C2=C(COc3ccc(CCC(=O)O)c(C)c3C)CCC2)cc1F [Compound 80, 3-(4-((2-(3-fluoro-4-methylphenyl)cyclopent-1-en-1-yl)methoxy)-2,3-dimethylphenyl)Propanoic Acid] | 19 nM | 81 nM | > 5000 nM
Cc1ccc(C2=C(COc3ccc(CCC(=O)O)c(C)c3C)CCC2)c(C)c1 [Compound 82] | 242 nM | 372 nM | > 5000 nM
Cc1ccc(C2=C(COc3ccc(CCC(=O)O)c(F)c3F)CCC2)cc1C [Compound 83, 3-(4-((2-(3,4-dimethylphenyl)cyclopent-1-en-1-yl)methoxy)-2,3-difluorophenyl)Propanoic Acid] | 143 nM | 590 nM | > 5000 nM
Cc1ccc(C2=C(COc3c(F)cc(CCC(=O)O)cc3F)CCC2)cc1C [Compound 84, 3-(4-((2-(3,4-dimethylphenyl)cyclopent-1-en-1-yl)methoxy)-3,5-difluorophenyl)Propanoic Acid] | 290 nM | 1740 nM | > 5000 nM
Cc1ccc(C2=C(COc3ccc(CCC(=O)O)c(C)c3C)CCC2)cn1 [Compound 85, 3-(2,3-dimethyl-4-((2-(6-methylpyridin-3-yl)cyclopent-1-en-1-yl)methoxy)phenyl)Propanoic Acid] | 234 nM | 605 nM | > 5000 nM
Cc1c(CCC(=O)O)ccc(OCC2=C(c3cncs3)CCC2)c1C [Compound 88, 3-[2,3-dimethyl-4-[(2-thiazol-5-ylcyclopenten-1-yl)methoxy]phenyl]Propanoic Acid] | 233 nM | 461 nM | > 5000 nM
Cc1ccc(C2=C(COc3ccc(CCC(=O)O)c(F)c3F)CCC2)cc1N [Compound 93, 3-(4-((2-(3-amino-4-methylphenyl)cyclopent-1-en-1-yl)methoxy)-2,3-difluorophenyl)Propanoic Acid] | 643 nM | 427 nM | > 5000 nM
Cc1ccc(C2=C(COc3ccc(CCC(=O)O)c(F)c3F)CCC2)cc1 [Compound 94, 3-(2,3-difluoro-4-((2-(p-tolyl)cyclopent-1-en-1-yl)methoxy)phenyl)Propanoic Acid] | 23 nM | 400 nM | > 5000 nM
Cc1ccc(C2=C(COc3c(F)cc(CCC(=O)O)cc3F)CCC2)cc1 [Compound 95, 3-(3,5-difluoro-4-((2-(p-tolyl)cyclopent-1-en-1-yl)methoxy)phenyl)Propanoic Acid] | 32 nM | 378 nM | > 5000 nM
Cc1c(CCC(=O)O)ccc(OCC2=C(c3ccc(Cl)cc3)CC(F)(F)C2)c1C [Compound 137, 3-[4-[[2-(4-chlorophenyl)-4,4-difluoro-cyclopenten-1-yl]methoxy]-2,3-dimethyl-phenyl]Propanoic Acid] | 65 nM | – | > 5000 nM

Now from value to compound:

EC50 (Human GPR120 short form [1]) | EC50 (Human GPR120 short form [2]) | EC50 (human GPR40) | SMILES
44 nM | 294 nM | > 5000 nM | Cc1c(CCC(=O)O)ccc(OCC2=C(c3ccc(F)cc3)CCC2)c1C [Compound 4, 3-[4-[[2-(4-fluorophenyl)cyclopenten-1-yl]methoxy]-2,3-dimethyl-phenyl]Propanoic Acid]
70 nM | 206 nM | > 5000 nM | Cc1c(CCC(=O)O)ccc(OCC2=C(c3ccc(Cl)cc3)CCC2)c1C [Compound 15, 3-(4-((2-(4-chlorophenyl)cyclopent-1-en-1-yl)methoxy)-2,3-dimethylphenyl)Propanoic Acid]
49 nM | 198 nM | > 5000 nM | CCc1ccc(C2=C(COc3c(F)cc(CCC(=O)O)cc3F)CCC2)cc1 [Compound 16, 3-(4-((2-(4-ethylphenyl)cyclopent-1-en-1-yl)methoxy)-3,5-difluorophenyl)Propanoic Acid]
– | > 20000 nM | > 5000 nM | Cc1c(CCC(=O)O)ccc(OCC2=C(c3ccc(OC(F)(F)F)cc3)CCC2)c1C [Compound 20, 3-(2,3-dimethyl-4-((2-(4-(trifluoromethoxy)phenyl)cyclopent-1-en-1-yl)methoxy)phenyl)Propanoic Acid]
114 nM | 301 nM | > 5000 nM | Cc1c(CCC(=O)O)ccc(OCC2=C(c3ccccc3)CCC2)c1C [Compound 23, 3-(2,3-dimethyl-4-((2-phenylcyclopent-1-en-1-yl)methoxy)phenyl)Propanoic Acid]
– | 129 nM | > 5000 nM | CCc1ccc(C2=C(COc3ccc(CCC(=O)O)c(F)c3F)CCC2)cc1 [Compound 25, 3-(4-((2-(4-ethylphenyl)cyclopent-1-en-1-yl)methoxy)-2,3-difluorophenyl)Propanoic Acid]
58 nM | 256 nM | > 5000 nM | CCc1ccc(C2=C(COc3ccc(CCC(=O)O)c(C)c3C)CCC2)cc1 [Compound 27, 3-(4-((2-(4-ethylphenyl)cyclopent-1-en-1-yl)methoxy)-2,3-dimethylphenyl)Propanoic Acid]
103 nM | 582 nM | 932 nM | O=C(O)CCc1ccc(OCC2=C(c3ccc(Cl)cc3)CCC2)cc1F [Compound 47, 3-[4-[[2-(4-chlorophenyl)cyclopenten-1-yl]methoxy]-2-fluoro-phenyl]Propanoic Acid]
103 nM | 550 nM | > 5000 nM | O=C(O)CCc1cc(F)c(OCC2=C(c3ccc(Cl)cc3)CCC2)c(F)c1 [Compound 60, 3-[4-[[2-(4-chlorophenyl)cyclopenten-1-yl]methoxy]-3,5-difluoro-phenyl]Propanoic Acid]
27 nM | 136 nM | > 5000 nM | Cc1cc(CCC(=O)O)ccc1OCC1=C(c2ccc(Cl)cc2)CCC1 [Compound 62, 3-[4-[[2-(4-chlorophenyl)cyclopenten-1-yl]methoxy]-3-methyl-phenyl]Propanoic Acid]
